Test results taken from patent publication US8883782B2, “Spiro-tetracyclic ring compounds as beta-secretase modulators and methods of use” (Amgen Inc., priority 2010, dated 2014).
pIC50: −log10 of the molar value. Like-named read-outs stand apart in the source and are kept apart here.

Legend:
[1] = test system: Aβ40 in conditioned medium of cells stably expressing Amyloid Precursor Protein (APP); assay: In vitro BACE cell-based assay (Aβ40 in conditioned medium, sandwich ELISA); details: read-out: HEK cell assay
Summary of the method: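 Quantification relied on pAb40/6E10 sandwich ELISA with Europium fluorescence counts, and IC50 was fitted versus concentration.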

[2] = target: Beta Secretase enzyme (BACE) (Homo sapiens, UniProt P56817); assay: In vitro enzymatic BACE FRET (fluorescence resonance energy transfer) assay; type: biochemical; details: average IC50, enzyme assay; read-out: BACE 1 FRET assay
Chain of Beta Secretase enzyme (BACE) (P56817 46-501, species assumed): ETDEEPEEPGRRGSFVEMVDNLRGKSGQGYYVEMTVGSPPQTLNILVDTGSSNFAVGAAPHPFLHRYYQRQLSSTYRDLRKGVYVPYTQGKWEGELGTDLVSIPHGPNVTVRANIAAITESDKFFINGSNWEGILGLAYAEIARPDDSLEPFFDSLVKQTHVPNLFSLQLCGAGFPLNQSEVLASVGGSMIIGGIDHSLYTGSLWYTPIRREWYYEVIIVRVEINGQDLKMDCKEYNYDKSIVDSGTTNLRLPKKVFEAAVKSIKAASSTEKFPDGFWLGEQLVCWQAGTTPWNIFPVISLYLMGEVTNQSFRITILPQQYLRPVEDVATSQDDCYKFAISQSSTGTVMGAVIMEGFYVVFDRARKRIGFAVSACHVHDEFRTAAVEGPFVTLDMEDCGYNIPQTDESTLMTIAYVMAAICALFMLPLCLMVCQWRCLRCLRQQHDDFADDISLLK
Summary of the method: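 Buffer 0.05 M acetate pH 4.2, 10% DMSO final, 100 uM genapol (sub-CMC); start with 50 nM FRET substrate; 1 h incubation; Tris stop; fluorescence read.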

[3] = Homo sapiens, HEK293, average IC50, HEK cells
[4] = Homo sapiens, HEK293, average IC50

Compound | pIC50 [1, 3] | pIC50 [2] | pIC50 [1, 4] | pIC50 ([1]; average IC50)
COCC1SC(N)=N[C@]12c1cc(-c3cccnc3F)ccc1Oc1cnc(-c3ccnc(F)c3)cc12 (stereo partly drawn) [Example 722, (5S)-7-(2-fluoro-3-pyridinyl)-3-(2-fluoro-4-pyridinyl)-5′-(methoxymethyl)spiro[chromeno[2,3-c]pyridine-5,4′-[1,3]thiazol]-2′-amine] | 5.23 | 6.47 | – | –
NC1=N[C@@]2(CO1)c1cc(-c3cccnc3)ccc1Oc1cnc(N3CC[C@@H](F)C3)cc12 [Example 411, (5S)-3-((3R)-3-fluoro-1-pyrrolidinyl)-7-(3-pyridinyl)spiro[chromeno[2,3-c]pyridine-5,4′-[1,3]oxazol]-2′-amine] | 8.35 | 8.64 | – | –
NC1=N[C@@]2(CO1)c1cc(-c3cncc(F)c3)ccc1Oc1cnc(-c3cncc(F)c3)cc12 [Example 373, (5S)-3,7-bis(5-fluoro-3-pyridinyl)spiro[chromeno[2,3-c]pyridine-5,4′-[1,3]oxazol]-2′-amine] | – | 8.66 | 7.64 | –
COC(C)(C)COc1cnc2c(c1)[C@@]1(COC(N)=N1)c1cc(-c3cccc(F)c3F)ccc1O2 [Example 314, (5R)-7-(2,3-difluorophenyl)-3-(2-methoxy-2-methylpropoxy)spiro[chromeno[2,3-b]pyridine-5,4′-[1,3]oxazol]-2′-amine] | – | 5.72 | 5.44 | –
Cc1ncncc1-c1ccc2c(c1)[C@@]1(COC(N)=N1)c1cc(-c3ccnc(F)c3)ncc1O2 [Example 809, (5S)-3-(2-fluoro-4-pyridinyl)-7-(4-methyl-5-pyrimidinyl)spiro[chromeno[2,3-c]pyridine-5,4′-[1,3]oxazol]-2′-amine] | – | 8.08 | 6.29 | –
CN1CCN(c2cc3c(cn2)Oc2ccc(-c4cccnc4F)cc2[C@@]32COC(N)=N2)CC1(C)C [Example 529, (5S)-7-(2-fluoro-3-pyridinyl)-3-(3,3,4-trimethyl-1-piperazinyl)spiro[chromeno[2,3-c]pyridine-5,4′-[1,3]oxazol]-2′-amine] | 8.36 | 8.05 | – | –
CC(C)(C#N)COc1cc2c(c(F)c1F)Oc1ccc(-c3cccnc3)cc1[C@]21COC(N)=N1 [Example 1008, 3-(((4R)-2-amino-3′,4′-difluoro-7′-(3-pyridinyl)spiro[1,3-oxazole-4,9′-xanthen]-2′-yl)oxy)-2,2-dimethylpropanenitrile] | – | 7.75 | 6.11 | –
CC1(/C=C/c2cnc3c(c2)[C@]2(COC(N)=N2)c2cc(-c4cccnc4F)ccc2O3)COC1 [Example 175, (5S)-7-(2-fluoro-3-pyridinyl)-3-((E)-2-(3-methyl-3-oxetanyl)ethenyl)spiro[chromeno[2,3-b]pyridine-5,4′-[1,3]oxazol]-2′-amine] | – | 9.30 | 9.00 | –
CC#Cc1cncc(-c2ccc3c(c2)[C@@]2(CSC(N)=N2)c2cc(C#CC4(C)COC4)cnc2O3)c1 [Example 782, (5S)-3-((3-methyl-3-oxetanyl)ethynyl)-7-(5-(1-propyn-1-yl)-3-pyridinyl)spiro[chromeno[2,3-b]pyridine-5,4′-[1,3]thiazol]-2′-amine] | – | 9.05 | 8.40 | –
CC(C)(C)C#Cc1cc2c(nc1F)Oc1ccc(-c3cccnc3F)cc1C21COC(N)=N1 (centres unmarked) [Example 148, 3-(3,3-dimethyl-1-butyn-1-yl)-2-fluoro-7-(2-fluoro-3-pyridinyl)spiro[chromeno[2,3-b]pyridine-5,4′-[1,3]oxazol]-2′-amine] | – | 9.15 | 7.67 | –
CC1(C#Cc2ccc3c(c2)[C@@]2(COC(N)=N2)c2cc(C4=CCOCC4)ncc2O3)COC1 [Example 160, (5S)-3-(3,6-dihydro-2H-pyran-4-yl)-7-((3-methyl-3-oxetanyl)ethynyl)spiro[chromeno[2,3-c]pyridine-5,4′-[1,3]oxazol]-2′-amine] | – | 7.66 | 7.04 | –
(5R)-3-bromo-7-iodospiro[chromeno[2,3-b]pyridine-5,4′-[1,3]oxazol]-2′-amine, (5S)-3-bromo-7-iodospiro[chromeno[2,3-b]pyridine-5,4′-[1,3]oxazol]-2′-amine [Example 762] | – | 8.40 | – | 7.07
NC1=N[C@]2(CO1)c1ccncc1Oc1ccc(-c3c(F)ccnc3F)cc12 [Example 677, (5S)-7-(2,4-difluoro-3-pyridinyl)spiro[chromeno[2,3-c]pyridine-5,4′-[1,3]oxazol]-2′-amine] | 6.24 | 7.29 | – | –
CC1(C#Cc2cc3c(cn2)Oc2ccc(-c4cccc(C#N)c4)cc2[C@@]32COC(N)=N2)COC1 [Example 164, 3-((5S)-2′-amino-3-((3-methyl-3-oxetanyl)ethynyl)spiro[chromeno[2,3-c]pyridine-5,4′-[1,3]oxazol]-7-yl)benzonitrile] | – | 8.64 | 7.72 | –

The remaining compounds from weak to strong by pIC50 [2], led by results:

pIC50 [1, 3] | pIC50 [2] | pIC50 [1, 4] | Compound | pIC50 ([1]; average IC50)
6.56 | 7.54 | – | Cc1ccnn1-c1cc(F)c2c(c1)[C@]1(COC(N)=N1)c1cc(-c3cncnc3)ccc1O2 [Example 636, (4S)-4′-fluoro-2′-(5-methyl-1H-pyrazol-1-yl)-7′-(5-pyrimidinyl)spiro[1,3-oxazole-4,9′-xanthen]-2-amine] | –
7.16 | 7.89 | – | CC(C)(C)C#Cc1ccc2c(c1)[C@@]1(COC(N)=N1)c1cc(N3CCOCC3)cnc1O2 [Example 464, (5S)-7-(3,3-dimethyl-1-butyn-1-yl)-3-(4-morpholinyl)spiro[chromeno[2,3-b]pyridine-5,4′-[1,3]oxazol]-2′-amine] | –
6.92 | 8.08 | – | CC1(C)C[C@H](c2cc3c(cn2)Oc2ccc(-c4cncnc4)cc2[C@@]32COC(N)=N2)CCO1 [Example 544, (5S)-3-((4R)-2,2-dimethyltetrahydro-2H-pyran-4-yl)-7-(5-pyrimidinyl)spiro[chromeno[2,3-c]pyridine-5,4′-[1,3]oxazol]-2′-amine] | –
– | 8.59 | 7.48 | NC1=N[C@@]2(CO1)c1cc(-c3cncc(F)c3)ccc1Oc1cnc(-c3ccnc(F)c3)cc12 [Example 376, (5S)-3-(2-fluoro-4-pyridinyl)-7-(5-fluoro-3-pyridinyl)spiro[chromeno[2,3-c]pyridine-5,4′-[1,3]oxazol]-2′-amine] | –
8.36 | 8.64 | – | CC1(C)C[C@@H](c2cnc3c(c2)[C@]2(COC(N)=N2)c2cc(-c4cccc(C#N)c4)ccc2O3)CCO1 [Example 472, 3-((5S)-2′-amino-3-((4S)-2,2-dimethyltetrahydro-2H-pyran-4-yl)spiro[chromeno[2,3-b]pyridine-5,4′-[1,3]oxazol]-7-yl)benzonitrile] | –
7.80 | 8.68 | – | NC1=N[C@@]2(CO1)c1cc(-c3cncc(F)c3)c(F)cc1Oc1ncc(C3=CCOCC3)cc12 [Example 647, (5S)-3-(3,6-dihydro-2H-pyran-4-yl)-8-fluoro-7-(5-fluoro-3-pyridinyl)spiro[chromeno[2,3-b]pyridine-5,4-[1,3]oxazol]-2′-amine] | –
7.72 | 8.92 | – | CC1(C#Cc2cc3c(cn2)Oc2ccc(-c4cccnc4F)cc2C32CSC(N)=N2)COC1 (centres unmarked) [Example 683, 7-(2-fluoro-3-pyridinyl)-3-((3-methyl-3-oxetanyl)ethynyl)spiro[chromeno[2,3-c]pyridine-5,4′-[1,3]thiazol]-2′-amine] | –
8.10 | 9.10 | – | Cc1cc(-c2cc3c(c(F)n2)Oc2ccc(-c4cccnc4F)cc2[C@@]32COC(N)=N2)on1 [Example 851, (5S)-1-fluoro-7-(2-fluoro-3-pyridinyl)-3-(3-methyl-5-isoxazolyl)spiro[chromeno[2,3-c]pyridine-5,4′-[1,3]oxazol]-2′-amine] | –
